Target: human APJ receptor (Homo sapiens (Human), UniProt P35414)
Test: biochemical
Type: biochemical
Conditions: [35S]GTPγS binding, CHO membranes expressing human APJ receptor; read-out: Activity hAPJ SPA EC50 IP
Summary of the method: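 Membranes of a stable CHO line carrying human APJ (pFLAG-CMV-3) were used in a GTPγS binding format; buffer GDP, MgCl2 and NaCl were optimized, and plates were read after 90 min at RT.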

human APJ receptor, sequence (P35414 whole entry): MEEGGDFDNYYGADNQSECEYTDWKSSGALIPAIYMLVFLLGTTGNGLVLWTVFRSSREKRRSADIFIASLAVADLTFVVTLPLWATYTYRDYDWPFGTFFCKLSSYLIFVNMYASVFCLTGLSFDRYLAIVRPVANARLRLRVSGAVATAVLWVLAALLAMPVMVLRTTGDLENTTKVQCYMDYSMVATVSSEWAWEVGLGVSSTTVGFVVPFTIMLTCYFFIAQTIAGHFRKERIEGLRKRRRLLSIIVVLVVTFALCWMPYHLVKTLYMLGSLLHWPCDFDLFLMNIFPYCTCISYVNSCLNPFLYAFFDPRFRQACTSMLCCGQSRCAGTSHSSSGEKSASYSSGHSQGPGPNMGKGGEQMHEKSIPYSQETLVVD

Compound | EC50 [nM]
COc1cccc(OC)c1-n1c(NS(=O)(=O)[C@@H](C)[C@H](OC)c2ncc(Cl)cn2)nnc1-c1n[nH]c2ccccc12 [Example 421.0, (1R,2S)-1-(5-chloropyrimidin-2-yl)-N-(4-(2,6-dimethoxyphenyl)-5-(1H-indazol-3-yl)-4H-1,2,4-triazol-3-yl)-1-methoxypropane-2-sulfonamide] | 4.5
(R)-N-(4-(2,6-dimethoxyphenyl)-5-(1H-pyrazol-3-yl)-4H-1,2,4-triazol-3-yl)-1-(5-fluoropyrimidin-2-yl)propane-2-sulfonamide and (S)-N-(4-(2,6-dimethoxyphenyl)-5-(1H-pyrazol-3-yl)-4H-1,2,4-triazol-3-yl)-1-(5-fluoropyrimidin-2-yl)propane-2-sulfonamide [Example 71.0] | 41
COc1cccc(OC)c1-n1c(NS(=O)(=O)C(C)Cc2ncc(F)cn2)nnc1-c1cc(C)no1 (stereo in doubt) [Example 57.0, (R)-N-(4-(2,6-dimethoxyphenyl)-5-(3-methylisoxazol-5-yl)-4H-1,2,4-triazol-3-yl)-1-(5-fluoropyrimidin-2-yl)propane-2-sulfonamide and (R)-N-(4-(2,6-dimethoxyphenyl)-5-(3-methylisoxazol-5-yl)-4H-1,2,4-triazol-3-yl)-1-(5-fluoropyrimidin-2-yl)propane-2-sulfonamide] | 42
COCC[C@@H]([C@H](C)c1ncc(F)cn1)S(=O)(=O)Nc1nnc(-c2nc(C)cs2)n1-c1c(OC)cccc1OC (single isomer, unassigned) [Example 21.0] | 90
COc1cccc(OC)c1-n1c(NS(=O)(=O)[C@@H](C)[C@H](O)c2ncc(C)cn2)nnc1-c1ccn(C(F)F)n1 [Example 218.0, (1R,2S)-N-(5-(1-(difluoromethyl)-1H-pyrazol-3-yl)-4-(2,6-dimethoxyphenyl)-4H-1,2,4-triazol-3-yl)-1-hydroxy-1-(5-methyl-2-pyrimidinyl)-2-propanesulfonamide] | 0.87
COc1cccc(OC)c1-n1c(NS(=O)(=O)[C@@H](C)[C@H](OC)c2ncc(C)cn2)nnc1-c1nn(C)c2ccccc12 [Example 436.0, (1R,2S)-N-(4-(2,6-dimethoxyphenyl)-5-(1-methyl-1H-indazol-3-yl)-4H-1,2,4-triazol-3-yl)-1-methoxy-1-(5-methylpyrimidin-2-yl)propane-2-sulfonamide] | 0.81
COc1cnc([C@@H](C)[C@H](C)S(=O)(=O)Nc2nnc(-c3ccn(C)n3)n2-c2c(OC)cccc2OC)cn1 [Example 287.0, (2S,3R)-N-(4-(2,6-dimethoxyphenyl)-5-(1-methyl-1H-pyrazol-3-yl)-4H-1,2,4-triazol-3-yl)-3-(5-methoxy-2-pyrazinyl)-2-butanesulfonamide] | 0.42
COc1cccc(OC)c1-n1c(NS(=O)(=O)[C@@H](C)Cc2ncc(F)cn2)nnc1-c1cccnn1 (single isomer, unassigned) [Example 32.0, (2S)-N-(4-(2,6-dimethoxyphenyl)-5-(3-pyridazinyl)-4H-1,2,4-triazol-3-yl)-1-(5-fluoro-2-pyrimidinyl)-2-propanesulfonamide or (2R)-N-(4-(2,6-dimethoxyphenyl)-5-(3-pyridazinyl)-4H-1,2,4-triazol-3-yl)-1-(5-fluoro-2-pyrimidinyl)-2-propanesulfonamide] | 17
CCO[C@H](c1ncc(Cl)cn1)[C@H](C)S(=O)(=O)Nc1nnc(-c2ccn(CC)n2)n1-c1c(OC)cccc1OC [Example 394.0, (1R,2S)-1-(5-chloropyrimidin-2-yl)-N-(4-(2,6-dimethoxyphenyl)-5-(1-ethyl-1H-pyrazol-3-yl)-4H-1,2,4-triazol-3-yl)-1-ethoxypropane-2-sulfonamide] | 0.54
CNC(=O)n1ccc(-c2nnc(NS(=O)(=O)[C@@H](C)Cc3ncc(F)cn3)n2-c2c(OC)cccc2OC)n1 (single isomer, unassigned) [Example 74.0] | 22
COCC1(n2c(NS(=O)(=O)[C@@H](C)[C@H](OC)c3ncc(Cl)cn3)nnc2-c2cnn3ccccc23)CCC1 [Example 508.0] | 62
COCC1(n2c(NS(=O)(=O)[C@@H](C)[C@H](OC)c3ncc(Cl)cn3)nnc2-c2n[nH]c3ccc(C)cc23)CC1 [Example 493.0, (1R,2S)-1-(5-chloropyrimidin-2-yl)-1-methoxy-N-(4-(1-(methoxymethyl)cyclopropyl)-5-(5-methyl-1H-indazol-3-yl)-4H-1,2,4-triazol-3-yl)propane-2-sulfonamide] | 43
COc1cccc(OC)c1-n1c(NS(=O)(=O)C[C@H](OC)c2ccc(Cl)cc2S(C)(=O)=O)nnc1-c1ccn(C)n1 (mixture of isomers) [Example 305.0, (2R)-2-(4-Chloro-2-(methylsulfonyl)phenyl)-N-(4-(2,6-dimethoxyphenyl)-5-(1-methyl-1H-pyrazol-3-yl)-4H-1,2,4-triazol-3-yl)-2-methoxyethanesulfonamide and (2S)-2-(4-chloro-2-(methylsulfonyl)phenyl)-N-(4-(2,6-dimethoxyphenyl)-5-(1-methyl-1H-pyrazol-3-yl)-4H-1,2,4-triazol-3-yl)-2-methoxyethanesulfonamide] | 0.44
CCO[C@H](c1ncc(F)cn1)[C@H](C)S(=O)(=O)Nc1nnc(-c2ccn(C)n2)n1-c1c(OC)cccc1OC [Example 135.0, (1R,2S)-N-(4-(2,6-Dimethoxyphenyl)-5-(1-methyl-1H-pyrazol-3-yl)-4H-1,2,4-triazol-3-yl)-1-ethoxy-1-(5-fluoro-2-pyrimidinyl)-2-propanesulfonamide] | 0.88
COc1ccc(C(=O)O)cc1-n1c(NS(=O)(=O)CCc2ccc(Cl)cc2)nnc1-c1cccs1 [Example 245.0, 3-(3-(2-(4-chlorophenyl)ethylsulfonamido)-5-(thiophen-2-yl)-4H-1,2,4-triazol-4-yl)-4-methoxybenzoic acid] | 210
(R)-N-(4-(2,6-dimethoxyphenyl)-5-(1,5-dimethyl-1H-pyrazol-3-yl)-4H-1,2,4-triazol-3-yl)-1-(5-fluoropyrimidin-2-yl)propane-2-sulfonamide and (S)-N-(4-(2,6-dimethoxyphenyl)-5-(1,5-dimethyl-1H-pyrazol-3-yl)-4H-1,2,4-triazol-3-yl)-1-(5-fluoropyrimidin-2-yl)propane-2-sulfonamide [Example 46.0] | 31
COc1ncnc(OC)c1-n1c(NS(=O)(=O)[C@@H](C)[C@H](C)c2ncc(C)cn2)nnc1-c1n[nH]c2ccccc12 [Example 427.0, (2S,3R)-N-(4-(4,6-dimethoxypyrimidin-5-yl)-5-(1H-indazol-3-yl)-4H-1,2,4-triazol-3-yl)-3-(5-methylpyrimidin-2-yl)butane-2-sulfonamide] | 21
COCc1nc(-c2nnc(NS(=O)(=O)CCc3ccc(Cl)cc3)n2-c2c(OC)cccc2OC)cs1 [Example 146.0] | 97
CCn1ccc(-c2nnc(NS(=O)(=O)[C@@H](C)[C@H](OC)c3ncc(F)cn3)n2-c2c(OC)cccc2OC)n1 [Example 134.0, (1R,2S)-N-(4-(2,6-Dimethoxyphenyl)-5-(1-ethyl-1H-pyrazol-3-yl)-4H-1,2,4-triazol-3-yl)-1-(5-fluoro-2-pyrimidinyl)-1-methoxy-2-propanesulfonamide] | 1.2

Reference: patent US11046680B1, “Heteroaryl-substituted triazoles as APJ receptor agonists” (priority 2016, dated 2021)
